Laboratory results as given in ChEMBL document CHEMBL3885881, “DrugMatrix”.

Species on record: Rattus norvegicus
Test: DrugMatrix - Regimen: Daily Repeat
Assay type: toxicity, organism-based, Sprague-Dawley
Design: regimen Daily Repeat, gender Male, age 6-8 weeks
Conditions: in vivo, iv, vehicle 100 % SALINE; for ABSOLUTE BASOPHIL / ABSOLUTE EOSINOPHIL / ABSOLUTE LYMPHOCYTE / ABSOLUTE MONOCYTE / ABSOLUTE SEGMENTED NEUTROPHIL / BASOPHIL / EOSINOPHIL / ERYTHROCYTE COUNT / HEMATOCRIT / HEMOGLOBIN / LEUKOCYTE COUNT / LYMPHOCYTE / MEAN CORPUSCULAR HEMOGLOBIN / MEAN CORPUSCULAR HEMOGLOBIN CONCENTRATION / MEAN CORPUSCULAR VOLUME / MONOCYTE / NEUTROPHIL / NUCLEATED RED BLOOD CELLS / PLATELET COUNT: tissue Blood; for ALANINE AMINOTRANSFERASE / ALBUMIN / ALKALINE PHOSPHATASE / ASPARTATE AMINOTRANSFERASE / BLOOD UREA NITROGEN / CARBON DIOXIDE / CHLORIDE / CHOLESTEROL / CREATINE PHOSPHOKINASE / CREATININE / GLUCOSE / LACTATE DEHYDROGENASE / LIPASE / PHOSPHORUS / POTASSIUM / SODIUM / TOTAL BILIRUBIN / TOTAL PROTEIN / URIC ACID: tissue Plasma
[1] = 5 mg/kg, 72 h, dose level Low, time 3 day
[2] = 5 mg/kg, 120 h, dose level Low, time 5 day
[3] = 30 mg/kg, 72 h, dose level High, time 3 day
[4] = 30 mg/kg, 120 h, dose level High, time 5 day

**Q.** What does the source list for CNC1(c2ccccc2Cl)CCCCC1=O (configuration not stated) [KETAMINE]?
**A.** ABSOLUTE BASOPHIL [1]: 0 CELLS/uL; ABSOLUTE EOSINOPHIL [1]: 51.33 CELLS/uL; ABSOLUTE LYMPHOCYTE [1]: 14067.33 CELLS/uL; ABSOLUTE MONOCYTE [1]: 102.67 CELLS/uL; ABSOLUTE SEGMENTED NEUTROPHIL [1]: 1912 CELLS/uL; BASOPHIL [1]: 0%; EOSINOPHIL [1]: 0.33%; ERYTHROCYTE COUNT [1]: 5.81 x10E6/uL; HEMATOCRIT [1]: 36.67%; HEMOGLOBIN [1]: 14.57 G/DL; LEUKOCYTE COUNT [1]: 16.13 x10E3/uL; LYMPHOCYTE [1]: 87%; MEAN CORPUSCULAR HEMOGLOBIN [1]: 25.1 pg; MEAN CORPUSCULAR HEMOGLOBIN CONCENTRATION [1]: 39.73 G/DL; MEAN CORPUSCULAR VOLUME [1]: 63.13 fL; MONOCYTE [1]: 0.67%; NEUTROPHIL [1]: 12%; NUCLEATED RED BLOOD CELLS [1]: 0 /100WBC; PLATELET COUNT [1]: 1224 x10E3/uL; ALANINE AMINOTRANSFERASE [1]: 65.67 u/L; ALBUMIN [1]: 4.37 G/DL; ALKALINE PHOSPHATASE [1]: 476.33 u/L; ASPARTATE AMINOTRANSFERASE [1]: 112 u/L; BLOOD UREA NITROGEN [1]: 16.67 mg/dL; CARBON DIOXIDE [1]: 24.33 mmol/L; CHLORIDE [1]: 102.33 MEQ/L; CHOLESTEROL [1]: 77 mg/dL; CREATINE PHOSPHOKINASE [1]: 659.67 u/L; CREATININE [1]: 0.19 mg/dL; GLUCOSE [1]: 151 mg/dL; LACTATE DEHYDROGENASE [1]: 281 u/L; LIPASE [1]: 8.67 u/L; PHOSPHORUS [1]: 13.03 mg/dL; POTASSIUM [1]: 6.82 MEQ/L; SODIUM [1]: 147.17 MEQ/L; TOTAL BILIRUBIN [1]: 0.2 mg/dL; TOTAL PROTEIN [1]: 6.1 G/DL; URIC ACID [1]: 1.77 mg/dL; ABSOLUTE BASOPHIL [2]: 0 CELLS/uL; ABSOLUTE EOSINOPHIL [2]: 0 CELLS/uL; ABSOLUTE LYMPHOCYTE [2]: 13962.33 CELLS/uL; ABSOLUTE MONOCYTE [2]: 431.67 CELLS/uL; ABSOLUTE SEGMENTED NEUTROPHIL [2]: 1839.33 CELLS/uL; BASOPHIL [2]: 0%; EOSINOPHIL [2]: 0%; ERYTHROCYTE COUNT [2]: 5.58 x10E6/uL; HEMATOCRIT [2]: 35.2%; HEMOGLOBIN [2]: 13.8 G/DL; LEUKOCYTE COUNT [2]: 16.23 x10E3/uL; LYMPHOCYTE [2]: 86%; MEAN CORPUSCULAR HEMOGLOBIN [2]: 24.77 pg; MEAN CORPUSCULAR HEMOGLOBIN CONCENTRATION [2]: 39.27 G/DL; MEAN CORPUSCULAR VOLUME [2]: 63.1 fL; MONOCYTE [2]: 2.67%; NEUTROPHIL [2]: 11.33%; NUCLEATED RED BLOOD CELLS [2]: 0 /100WBC; PLATELET COUNT [2]: 1165.33 x10E3/uL; ALANINE AMINOTRANSFERASE [2]: 62.33 u/L; ALBUMIN [2]: 4 G/DL; ALKALINE PHOSPHATASE [2]: 365.67 u/L; ASPARTATE AMINOTRANSFERASE [2]: 75.67 u/L; BLOOD UREA NITROGEN [2]: 16 mg/dL; CARBON DIOXIDE [2]: 23.67 mmol/L; CHLORIDE [2]: 103 MEQ/L; CHOLESTEROL [2]: 71 mg/dL; CREATINE PHOSPHOKINASE [2]: 194 u/L; CREATININE [2]: 0.14 mg/dL; GLUCOSE [2]: 158.33 mg/dL; LACTATE DEHYDROGENASE [2]: 81 u/L; LIPASE [2]: 8.33 u/L; PHOSPHORUS [2]: 11.53 mg/dL; POTASSIUM [2]: 6.9 MEQ/L; SODIUM [2]: 144.5 MEQ/L; TOTAL BILIRUBIN [2]: 0.2 mg/dL; TOTAL PROTEIN [2]: 6.03 G/DL; URIC ACID [2]: 1.43 mg/dL; ABSOLUTE BASOPHIL [3]: 0 CELLS/uL; ABSOLUTE EOSINOPHIL [3]: 0 CELLS/uL; ABSOLUTE LYMPHOCYTE [3]: 14382.67 CELLS/uL; ABSOLUTE MONOCYTE [3]: 155.33 CELLS/uL; ABSOLUTE SEGMENTED NEUTROPHIL [3]: 1995.33 CELLS/uL; BASOPHIL [3]: 0%; EOSINOPHIL [3]: 0%; ERYTHROCYTE COUNT [3]: 5.41 x10E6/uL; HEMATOCRIT [3]: 34.6%; HEMOGLOBIN [3]: 13.7 G/DL; LEUKOCYTE COUNT [3]: 16.53 x10E3/uL; LYMPHOCYTE [3]: 87.33%; MEAN CORPUSCULAR HEMOGLOBIN [3]: 25.3 pg; MEAN CORPUSCULAR HEMOGLOBIN CONCENTRATION [3]: 39.6 G/DL; MEAN CORPUSCULAR VOLUME [3]: 63.93 fL; MONOCYTE [3]: 1%; NEUTROPHIL [3]: 11.67%; NUCLEATED RED BLOOD CELLS [3]: 0 /100WBC; PLATELET COUNT [3]: 1095 x10E3/uL; ALANINE AMINOTRANSFERASE [3]: 62.67 u/L; ALBUMIN [3]: 4.23 G/DL; ALKALINE PHOSPHATASE [3]: 372.33 u/L; ASPARTATE AMINOTRANSFERASE [3]: 96.67 u/L; BLOOD UREA NITROGEN [3]: 17 mg/dL; CARBON DIOXIDE [3]: 19 mmol/L; CHLORIDE [3]: 101.67 MEQ/L; CHOLESTEROL [3]: 72.67 mg/dL; CREATINE PHOSPHOKINASE [3]: 366.67 u/L; CREATININE [3]: 0.23 mg/dL; GLUCOSE [3]: 202.67 mg/dL; LACTATE DEHYDROGENASE [3]: 284.33 u/L; LIPASE [3]: 10 u/L; PHOSPHORUS [3]: 13.57 mg/dL; POTASSIUM [3]: 5.66 MEQ/L; SODIUM [3]: 144.1 MEQ/L; TOTAL BILIRUBIN [3]: 0.2 mg/dL; TOTAL PROTEIN [3]: 6 G/DL; URIC ACID [3]: 2.03 mg/dL; ABSOLUTE BASOPHIL [4]: 0 CELLS/uL; ABSOLUTE EOSINOPHIL [4]: 79.33 CELLS/uL; ABSOLUTE LYMPHOCYTE [4]: 16271.33 CELLS/uL; ABSOLUTE MONOCYTE [4]: 278 CELLS/uL; ABSOLUTE SEGMENTED NEUTROPHIL [4]: 1271.33 CELLS/uL; BASOPHIL [4]: 0%; EOSINOPHIL [4]: 0.33%; ERYTHROCYTE COUNT [4]: 5.66 x10E6/uL; HEMATOCRIT [4]: 35.67%; HEMOGLOBIN [4]: 14 G/DL; LEUKOCYTE COUNT [4]: 17.9 x10E3/uL; LYMPHOCYTE [4]: 92%; MEAN CORPUSCULAR HEMOGLOBIN [4]: 24.8 pg; MEAN CORPUSCULAR HEMOGLOBIN CONCENTRATION [4]: 39.27 G/DL; MEAN CORPUSCULAR VOLUME [4]: 63.03 fL; MONOCYTE [4]: 1.33%; NEUTROPHIL [4]: 6.33%; NUCLEATED RED BLOOD CELLS [4]: 0 /100WBC; PLATELET COUNT [4]: 1154.33 x10E3/uL; ALANINE AMINOTRANSFERASE [4]: 51 u/L; ALBUMIN [4]: 4.2 G/DL; ALKALINE PHOSPHATASE [4]: 328.67 u/L; ASPARTATE AMINOTRANSFERASE [4]: 76.67 u/L; BLOOD UREA NITROGEN [4]: 16.33 mg/dL; CARBON DIOXIDE [4]: 22.67 mmol/L; CHLORIDE [4]: 105 MEQ/L; CHOLESTEROL [4]: 69.67 mg/dL; CREATINE PHOSPHOKINASE [4]: 264.33 u/L; CREATININE [4]: 0.2 mg/dL; GLUCOSE [4]: 179.33 mg/dL; LACTATE DEHYDROGENASE [4]: 119.67 u/L; LIPASE [4]: 8.67 u/L; PHOSPHORUS [4]: 12.4 mg/dL; POTASSIUM [4]: 6.35 MEQ/L; SODIUM [4]: 146.23 MEQ/L; TOTAL BILIRUBIN [4]: 0.17 mg/dL; TOTAL PROTEIN [4]: 6.1 G/DL; URIC ACID [4]: 1.3 mg/dL
